These results are taken from patent US10344014B2, “Amorphous form of tetracyclic compound” (Chugai Seiyaku Kabushiki Kaisha, priority 2014, dated 2019).

Where only a bound is given, the exact number is not on record here.

For orientation: Solubility means the dissolved amount per volume that the medium holds.

Common to all, as to format: physicochemical
Data set [1] in a line: Intrinsic dissolution rate, USP chapter 1087 (Example 5). The method, then:
A test of measuring intrinsic dissolution rate (according to USP chapter 1087 “APPARENT […] DISSOLUTION-DISSOLUTION TESTING PROCEDURES FOR ROTATING DISK AND STATIONARY DISK”) was performed on a composition containing the amorphous and crystalline forms (form I crystals) of 9-ethyl-6,6-dimethyl-8-(4-morpholin-4-yl-piperidin-1-yl)-11-oxo-6,11-dihydro-5H-benzo[b]carbazole-3-carbonitrilemonohydrochloride at certain ratios. It was concluded that the dissolution rate was increased when the content of the amorphous was about 15% or higher.

Data set [2] can be described thus: Stability test of the amorphous form, X-ray powder diffraction after storage (Example 4). Also noted: key to State of the amorphous form after storage (X-ray powder diffraction peak): ◯: no peak of diffraction angle; X: clear peak of diffraction angle. As to the method:
The amorphous form of 9-ethyl-6,6-dimethyl-8-(4-morpholin-4-yl-piperidin-1-yl)-11-oxo-6,11-dihydro-5H-benzo[b]carbazole-3-carbonitrilemonohydrochloride was stored under a certain condition and transition of the state of the amorphous form of the test compound was analyzed using. X-ray power diffraction as in the Test example 1.

A short description of data set [3]: Solubility by shake flask method, 37° C. (Example 6). The method, then:
Solubility of the amorphous form and form I crystals of 9-ethyl-6,6-dimethyl-8-(4-morpholin-4-yl-piperidin-1-yl)-11-oxo-6,11-dihydro-5H-benzo[b]carbazole-3-carbonitrilemonohydrochloride was examined using a shake flask method (37° C.).

A short description of data set [4]: Residual rate of principal drug by HPLC after storage (Test Example 5). As to the method: The amorphous substances and the solid dispersions of 9-ethyl-6,6-dimethyl-8-(4-morpholin-4-yl-piperidin-1-yl)-11-oxo-6,11-dihydro-5H-benzo[b]carbazole-3-earbonitrile obtained in Examples 8 to 15 were tested under two conditions: i) they were stored in a thermostatic bath set at 40° C. for 3 months, and ii) they were stored in a thermostatic bath set at 40° C. and 75% RH for 3 months in an open state. Residual rates of the principal drugs were measured under following conditions of high performance liquid chromatography. It was concluded that the amorphous substances and the solid dispersions were chemically stable.
Detector: UV absorptiometer (measurement wavelength: 230 nm)
Column: stainless column of 4.6 mm in inner diameter and 15 cm in length, filled with 3.5 um of octadecylsilyl silica gel for liquid chromatography
Column temperature: fixed temperature about 35° C.
Mobile phase A: mixed solution of acetonitrile/trifluoroacetic acid (2000:1)
Mobile phase B: mixed solution of water/trifluoroacetic acid (2000:1)
Mobile phase supply: controlled concentration gradient with varying mixing ratio of mobile phases A and B as follows.

For `CCc1cc2c(cc1N1CCC(N3CCOCC3)CC1)C(C)(C)c1[nH]c3cc(C#N)ccc3c1C2=O.Cl` [9-ethyl-6,6-dimethyl-8-(4-morpholin-4-yl-piperidin-1-yl)-11-oxo-6,11-dihydro-5H-benzo[b]carbazole-3-carbonitrilemonohydrochloride], the Intrinsic dissolution rate was determined as 0.0065 mg/cm^2/min in data set [1] (Amount of amorphous 5.6%), 0.0065 mg/cm^2/min in data set [1] (Amount of amorphous 9.8%), 0.0112 mg/cm^2/min in data set [1] (Amount of amorphous 16.8%) and 0.0078 mg/cm^2/min in data set [1] (Amount of amorphous (%): 0 < Lower than detection limit).
With `CCc1cc2c(cc1N1CCC(N3CCOCC3)CC1)C(C)(C)c1[nH]c3cc(C#N)ccc3c1C2=O.Cl` [Amorphous, 9-ethyl-6,6-dimethyl-8-(4-morpholin-4-yl-piperidin-1-yl)-11-oxo-6,11-dihydro-5H-benzo[b]carbazole-3-carbonitrilemonohydrochloride], in data set [2] (6 months, 40° C. and 75% RH, sealed condition), the “Physical stability in accelerated test (in words)” value is “hardly crystallized and physically stable”. Further, the “Physical stability in long-term stability test (in words)” value in data set [2] (12 months, 30° C. and 75% RH, sealed condition) is “hardly crystallized and physically stable”. Besides, the “State of the amorphous form after storage (X-ray powder diffraction peak)” value in data set [2] (25° C./93% RH, Open, 1 month) is reported as “X”; in data set [2] (25° C./93% RH, Open, 3 months), “X”; in data set [2] (25° C./93% RH, Open, 6 months) it was “X”; in data set [2] (30° C./75% RH, Sealed, 3 months) it was “◯”; in data set [2] (30° C./75% RH, Sealed, 6 months), “◯”; in data set [2] (30° C./75% RH, Sealed, 12 months), “◯”. Moreover, the “State of the amorphous form after storage (X-ray powder diffraction peak)” value in data set [2] (40° C./75% RH, Sealed, 1 month) is given as “◯”; in data set [2] (40° C./75% RH, Sealed, 3 months), “◯”; in data set [2] (40° C./75% RH, Sealed, 6 months) it was “◯”. Also, the Solubility in data set [3] (Acetate buffer pH 4.5, equilibration 1 hour) was 0.5 µg/mL; in data set [3] (Acetate buffer pH 4.5, equilibration 24 hours, limit of quantitation 0.0004 mg/mL), 0.4 µg/mL; in data set [3] (First solution for dissolution test (Japanese Pharmacopoeia, 16th edition), equilibration 1 hour), 4.5 µg/mL; in data set [3] (First solution for dissolution test (Japanese Pharmacopoeia, 16th edition), equilibration 24 hours) it was 2.5 µg/mL; in data set [3] (Phosphate buffer pH 8.0, equilibration 1 hour, limit of quantitation 0.0004 mg/mL), “<Lower than limit of”; in data set [3] (Phosphate buffer pH 8.0, equilibration 24 hours, limit of quantitation 0.0004 mg/mL), “<Lower than limit of”. Besides, the Solubility entry in data set [3] (Simulated intestinal fluid (SIFsp), equilibration 1 hour, limit of quantitation 0.0004 mg/mL) is “<Lower than limit of”; in data set [3] (Simulated intestinal fluid (SIFsp), equilibration 24 hours, limit of quantitation 0.0004 mg/mL), “<Lower than limit of”; in data set [3] (Solution for dissolution test (4% Triton-X100 added to the first solution for dissolution test), equilibration 1 hour) it was 1150.6 µg/mL; in data set [3] (Solution for dissolution test (4% Triton-X100 added to the first solution for dissolution test), equilibration 24 hours), 1155.2 µg/mL; in data set [3] (Water, equilibration 1 hour), 59.9 µg/mL; in data set [3] (Water, equilibration 24 hours), 39.3 µg/mL. In addition, the “Solubility compared with form I crystals (in words)” value in data set [3] (shake flask method) was “higher than that of the form I crystals”.
As to `CCc1cc2c(cc1N1CCC(N3CCOCC3)CC1)C(C)(C)c1[nH]c3cc(C#N)ccc3c1C2=O` [Example 8, 9-ethyl-6,6-dimethyl-8-(4-morpholin-4-yl-piperidin-1-yl)-11-oxo-6,11-dihydro-5H-benzo[b]carbazole-3-carbonitrile], the “Retention rate after 3 months at 40° C. in 75 % RH” value in data set [4] (40° C. and 75% RH, open state) was determined as 99.66. The “Retention rate after 3 months at 40° C.” value in data set [4] (thermostatic bath 40° C.) came to 99.60.
